Source: patent US20230322722A1, “MODULATORS OF MYC FAMILY PROTO-ONCOGENE PROTEIN” (Nalo Therapeutics, priority 2020, published 2023)

Assays:
MycN protein = target: T1, MycN protein (Homo sapiens, UniProt P04198); assay: Degradation of MycN protein, Western blot, SKNBE2 cells (Example 160); assay type: cell-based
T1 construct: either 2×10^6 of L-363 (human leukemia cell line) or SKNBE2 (neuroblastoma cell line) cells; endogenous in cells; host or cells: SKNBE2 / SK-N-BE(2) neuroblastoma cells
T1 sequence (P04198 1-464): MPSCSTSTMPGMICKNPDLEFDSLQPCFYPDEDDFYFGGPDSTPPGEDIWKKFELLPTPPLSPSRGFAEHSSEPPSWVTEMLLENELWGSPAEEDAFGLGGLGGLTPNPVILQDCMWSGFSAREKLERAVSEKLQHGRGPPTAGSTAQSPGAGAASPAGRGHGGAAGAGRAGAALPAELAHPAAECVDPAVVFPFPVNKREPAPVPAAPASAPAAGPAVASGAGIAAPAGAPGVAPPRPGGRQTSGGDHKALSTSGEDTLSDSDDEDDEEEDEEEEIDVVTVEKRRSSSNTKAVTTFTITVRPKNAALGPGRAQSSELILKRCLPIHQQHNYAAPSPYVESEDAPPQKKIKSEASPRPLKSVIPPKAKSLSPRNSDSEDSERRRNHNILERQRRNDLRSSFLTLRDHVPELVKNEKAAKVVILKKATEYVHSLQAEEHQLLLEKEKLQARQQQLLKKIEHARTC
Description: (§1) In a T150 flask was plated either 2×10^6 of L-363 (human leukemia cell line) or SKNBE2 (neuroblastoma cell line) cells in a total of 30 mL containing Roswell Park Memorial Institute (RPMI) 1640 Medium (Thermo Fisher, Cat. #11875-085), 10% Fetal Bovine Serum (FBS, Thermo Fisher: Cat. #10437-028), 1% Penicillin/streptomycin (Thermo Fisher: Cat. #10378016), and 1% Amophotericin B (Thermo Fisher, Cat. #15290026). The cells were split every 72 hours by reseeding the L-363 or SKNBE2 cells, and the passage number was noted. It is noteworthy that cell cultures that were above 40 passages were not used, and most experiments were done with cells of less than 30 passages.
(§2) In a 6-well cell culture plate, a total of 3 mL of either 1×10^6 cells/mL of L-363 or SKNBE2 cells were seeded, resulting in a total of 3×10^6 cells per well. To each well containing 3 mL of either L-363 or SKNBE2 cell line was added 6 uL of MycN modulating compound (1 mM) and the resulting plate was shaken from left to right, and not swirled. After 6 hours, the cells were placed in a 15 mL falcon tube and spun at 500 Gs at 4° C. in a swinging bucket centrifuge. The medium was then carefully removed without disturbing the pellet. The pellet was then washed with 3 mLs of chilled phosphate buffered saline (PBS) and subjected to the spin cycle. PBS was then removed and the pellet was lysed in 200 uL of radioimmunoprecipitation (RIPA) lysis buffer (Thermo Fisher: Cat. #899000) that is supplemented with protease and phosphatase inhibitors (Thermo Fisher: Cat. #A32959). The cell lysate was then subjected to spinning in a centrifuge for 10 minutes at 13000 G at 4° C. The supernatant was then carefully transferred to a fresh eppendorf tube without disturbing the pellet (˜180 uL). The protein concentration of the cell lysate was then determined by using a bicinchoninic acid (BCA assay) according to manufacturer's protocol (Thermo Fisher: Cat. #23227).
(§3) Cell lysate, approximately 25 ug-30 ug, was loaded per well in a 4-20% polyacrylamide gel (Biorad. Cat. #5671094). After running the dye front off of the gel, the gel was transferred to a nitrocellulose membrane (Biorad: Cat. #1704159) using the transblot turbo system (Biorad: Cat. #1704150) according to manufacturer's protocol. After transferring for 30 minutes, the membrane was blocked with 5% BSA for 1 hour at room temperature. The BSA was then washed off and the primary antibody of choice (1:500) was added, and the membrane was incubated with the primary antibody at 4° C. for overnight. The next morning, the primary antibody was removed and the membrane was washed with 1×-TBST for 10 minutes and repeated three more times. Following the last wash, a secondary antibody (Molecular Devices. Cat. #R8209 or R8208) was added at 1:5000 dilution and incubated for 1 hour at room temperature. Following the incubation with the secondary antibody, the membrane was washed with 1×-TBST for 10 minutes and repeated three more times. Following the last wash, the membrane was washed with de-ionized water twice and dried for at least two hours. Once the membrane is completely dry, the Molecular Devices Spectra Max western system was used to observe the bands. The western image was saved and the band density was measured with ImageJ software.

MycC protein = target: T2, MycC protein (Homo sapiens, UniProt P01106); assay: Degradation of MycC protein, Western blot, L-363 cells (Example 160); assay type: cell-based; conditions: 6 h
T2 construct: either 2×10^6 of L-363 (human leukemia cell line) or SKNBE2 (neuroblastoma cell line) cells; endogenous in cells; host or cells: L-363 / L363 human leukemia cells
T2 sequence (P01106 whole entry): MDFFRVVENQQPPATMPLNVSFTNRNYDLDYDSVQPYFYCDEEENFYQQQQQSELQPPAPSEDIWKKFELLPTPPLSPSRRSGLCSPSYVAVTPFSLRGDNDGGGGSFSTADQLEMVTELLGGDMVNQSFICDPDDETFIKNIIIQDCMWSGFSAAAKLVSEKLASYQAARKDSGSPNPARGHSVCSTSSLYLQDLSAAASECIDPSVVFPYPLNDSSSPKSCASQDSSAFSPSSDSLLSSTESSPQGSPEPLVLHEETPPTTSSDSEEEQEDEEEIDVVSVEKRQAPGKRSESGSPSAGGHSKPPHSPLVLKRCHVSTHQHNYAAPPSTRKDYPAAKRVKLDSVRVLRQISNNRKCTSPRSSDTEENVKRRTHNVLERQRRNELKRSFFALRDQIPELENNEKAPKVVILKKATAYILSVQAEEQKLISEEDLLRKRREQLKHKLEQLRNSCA
Description: as §1, §2, §3

Structure (SMILES)	inhibition at 2 µM (MycN protein; SKNBE2, 6 h)	inhibition at 2 µM (MycC protein)	inhibition at 2 µM (MycN protein; 6 h)
CN(c1nccc(Nc2cc(C3CC3)[nH]n2)n1)[C@H]1CC[C@H](NC(=O)N2Cc3cc(F)c(F)cc3C2)CC1 [Compound 12, N-((1R,4R)-4-((4-((5-cyclopropyl-1H-pyrazol-3-yl)amino)pyrimidin-2-yl)(methyl)amino)cyclohexyl)-5,6-difluoroisoindoline-2-carboxamide]	50 to 79%	80 to 100%	
CN(c1nccc(Nc2cc(C3CC3)[nH]n2)n1)[C@H]1CC[C@H](NC(=O)N2CCc3cc(F)c(F)cc3C2)CC1 [Compound 13, N-((1R,4R)-4-((4-((5-cyclopropyl-1H-pyrazol-3-yl)amino)pyrimidin-2-yl)(methyl)amino)cyclohexyl)-6,7-difluoro-3,4-dihydroisoquinoline-2(1H)-carboxamide]	50 to 79%	80 to 100%	
CN(c1nccc(Nc2cc(C3CC3)[nH]n2)n1)[C@H]1CC[C@H](NC(=O)N2CCn3nc(C(F)(F)F)nc3C2)CC1 [Compound 14, N-((1R,4R)-4-((4-((5-cyclopropyl-1H-pyrazol-3-yl)amino)pyrimidin-2-yl)(methyl)amino)cyclohexyl)-2-(trifluoromethyl)-5,6-dihydro-[1,2,4]triazolo[1,5-a]pyrazine-7(8H)-carboxamide]	80 to 100%	80 to 100%	
Cc1cnc(CC(=O)NC2CCC(N(C)c3nccc(Nc4cc(C5CC5)[nH]n4)n3)CC2)cn1 [Compound 108, N-((1R,4R)-4-((4-((5-cyclopropyl-1H-pyrazol-3-yl)amino)pyrimidin-2-yl)(methyl)amino)cyclohexyl)-2-(5-methylpyrazin-2-yl)acetamide]	50 to 79%	80 to 100%	
CN(c1cc(C2CC2)[nH]n1)c1ccnc(N(C)[C@H]2CC[C@H](NC(=O)C3CCc4ccccc43)CC2)n1 (stereo partly drawn) [Compound 109, N-((1R,4R)-4-((4-((5-cyclopropyl-1H-pyrazol-3-yl)(methyl)amino)pyrimidin-2-yl)(methyl)amino)cyclohexyl)-2,3-dihydro-1H-indene-1-carboxamide]	< 20%	50 to 79%	
CN(c1cc(C2CC2)[nH]n1)c1ccnc(N(C)[C@H]2CC[C@H](NC(=O)C3Cc4ccccc4C3)CC2)n1 [Compound 110, N-((1R,4R)-4-((4-((5-cyclopropyl-1H-pyrazol-3-yl)(methyl)amino)pyrimidin-2-yl)(methyl)amino)cyclohexyl)-2,3-dihydro-1H-indene-2-carboxamide]	< 20%	20 to 49%	
Cn1nc(Nc2ccnc(N(C)[C@H]3CC[C@H](NC(=O)C4Cc5ccccc5C4)CC3)n2)cc1C1CC1 [Compound 111, N-((1R,4R)-4-((4-((5-cyclopropyl-1-methyl-1H-pyrazol-3-yl)amino)pyrimidin-2-yl)(methyl)amino)cyclohexyl)-2,3-dihydro-1H-indene-2-carboxamide]	20 to 49%	< 20%	
CN(c1nccc(Nc2cc(C3CC3)[nH]n2)n1)[C@H]1CC[C@H](NC(=O)C2CCc3ccccc32)CC1 (stereo partly drawn) [Compound 112, N-((1R,4R)-4-((4-((5-cyclopropyl-1H-pyrazol-3-yl)amino)pyrimidin-2-yl)(methyl)amino)cyclohexyl)-2,3-dihydro-1H-indene-1-carboxamide]	50 to 79%	80 to 100%	
CN(c1nccc(Nc2cc(C3CC3)[nH]n2)n1)[C@H]1CC[C@H](NC(=O)Cc2cccc(S(C)(=O)=O)c2)CC1 [Compound 115, N-((1R,4R)-4-((4-((5-cyclopropyl-1H-pyrazol-3-yl)amino)pyrimidin-2-yl)(methyl)amino)cyclohexyl)-2-(3-(methylsulfonyl)phenyl)acetamide]	< 20%	50 to 79%	
CN(c1nccc(Nc2cc(C3CC3)[nH]n2)n1)[C@H]1CC[C@H](C(=O)NC2Cc3ccccc3C2)CC1 [Compound 119, (1R,4R)-4-((4-((5-cyclopropyl-1H-pyrazol-3-yl)amino)pyrimidin-2-yl)(methyl)amino)-N-(2,3-dihydro-1H-inden-2-yl)cyclohexane-1-carboxamide]		80 to 100%	80 to 100%
CN(c1nccc(Nc2cc(C3CC3)[nH]n2)n1)C1CCC(CC(=O)NC2Cc3ccccc3C2)CC1 (stereo not shown) [Compound 121, 2-(4-((4-((5-cyclopropyl-1H-pyrazol-3-yl)amino)pyrimidin-2-yl)(methyl)amino)cyclohexyl)-N-(2,3-dihydro-1H-inden-2-yl)acetamide]		80 to 100%	80 to 100%

Second part, led by results:

inhibition at 2 µM (MycN protein; SKNBE2, 6 h)	inhibition at 2 µM (MycC protein)	Structure (SMILES)	inhibition at 2 µM (MycN protein; 6 h)
< 20%	80 to 100%	CN(c1nccc(Nc2cc(C3CC3)[nH]n2)n1)[C@H]1CC[C@H](NC(=O)C2(C)CCOCC2)CC1 [Compound 116, N-((1R,4R)-4-((4-((5-cyclopropyl-1H-pyrazol-3-yl)amino)pyrimidin-2-yl)(methyl)amino)cyclohexyl)-4-methyltetrahydro-2H-pyran-4-carboxamide]	
80 to 100%	80 to 100%	CN(c1nccc(Nc2cc(C3CC3)[nH]n2)n1)[C@H]1CC[C@H](NC(=O)c2cn3ccccc3n2)CC1 [Compound 117, N-((1R,4R)-4-((4-((5-cyclopropyl-1H-pyrazol-3-yl)amino)pyrimidin-2-yl)(methyl)amino)cyclohexyl)imidazo[1,2-a]pyridine-2-carboxamide]	
50 to 79%	80 to 100%	Cn1ncc2cc(C(=O)N[C@H]3CC[C@H](N(C)c4nccc(Nc5cc(C6CC6)[nH]n5)n4)CC3)ccc21 [Compound 118, N-((1R,4R)-4-((4-((5-cyclopropyl-1H-pyrazol-3-yl)amino)pyrimidin-2-yl)(methyl)amino)cyclohexyl)-1-methyl-1H-indazole-5-carboxamide]	
50 to 79%	80 to 100%	CN(c1nccc(Nc2cc(C3CC3)[nH]n2)n1)[C@H]1CC[C@H](C(=O)NCC2Cc3ccccc3C2)CC1 [Compound 120, (1R,4R)-4-((4-((5-cyclopropyl-1H-pyrazol-3-yl)amino)pyrimidin-2-yl)(methyl)amino)-N-((2,3-dihydro-1H-inden-2-yl)methyl)cyclohexane-1-carboxamide]	
50 to 79%	80 to 100%	Cn1nnc(C(=O)N[C@H]2CC[C@H](N(C)c3nccc(Nc4cc(C5CC5)[nH]n4)n3)CC2)n1 [Compound 122, N-((1R,4R)-4-((4-((5-cyclopropyl-1H-pyrazol-3-yl)amino)pyrimidin-2-yl)(methyl)amino)cyclohexyl)-2-methyl-2H-tetrazole-5-carboxamide]	
20 to 49%	20 to 49%	CN(c1nccc(Nc2cc(C3CC3)[nH]n2)n1)[C@H]1CC[C@H](NC(=O)Cc2ccnc(C(F)(F)F)c2)CC1 [Compound 123, N-((1R,4R)-4-((4-((5-cyclopropyl-1H-pyrazol-3-yl)amino)pyrimidin-2-yl)(methyl)amino)cyclohexyl)-2-(2-(trifluoromethyl)pyridin-4-yl)acetamide]	
